The assay deals with ATX (human His-tagged) (Homo sapiens (Human), UniProt Q13822). In words: Human ATX Enzyme Inhibition Assay (fluorescence quenching, MR121 substrate). Format: biochemical. Conditions: 30 nM ATX, 1 μM MR121 substrate, 30° C. As for the experimental part:
Autotaxin (ATX-ENPP2) cloning: cDNA was prepared from commercial human hematopoietic cells total RNA and used as template in overlapping PCR to generate a full length human ENPP2 ORF with or without a 3′-6×His tag. These full length inserts were cloned into the pcDNA3.1V5-His TOPO (Invitrogen) vector. The DNA sequences of several single clones were verified. The DNA from a correct full length clone was used to transfect Hek293 cells for verification of protein expression. The sequence of the encoded ENPP2 conforms to Swissprot entry Q13822, with or without the additional C-terminal 6×His tag. ATX Fermentation: Recombinant protein was produced by large-scale transient transfection in 20 L controlled stirred tank bioreactors (Sartorius). During cell growth and transfection, temperature, stirrer speed, pH and dissolved oxygen concentration were maintained at 37° C., 120 rpm, 7.1 and 30% DO, respectively. […] Expression was analyzed by Western Blot, enzymatic assay and/or analytical IMAC chromatography. […] Human ATX Enzyme Inhibition Assay ATX inhibition was measured by a fluorescence quenching assay using a specifically labeled substrate analogue (MR121 substrate). […]

One molecule from patent US11673888B2, “Bicyclic compounds as ATX inhibitors” (Hoffmann-La Roche Inc., priority 2017, dated 2023) can be followed below.

One may read the IC50 as the concentration at which inhibition is half-maximal. The low end stands for higher potency, the high end for lower potency. For the molecule `O=C(c1cnc(OCC2CCOCC2)c(C2CC2)c1)N1CCc2nc(C(=O)N3CCc4[nH]nnc4C3)sc2C1` [Example 1.03], the IC50 was 5 nM.
